US4345938A, “Herbicidal 2-haloacetanilides” (Monsanto Company, priority 1980, dated 1982)
Like-named read-outs stand apart in the source and are kept apart here.

Experiments:
[1] = tested on: Cyperus serotinus; test: Field transplant rice test, applied 0 DAT, CS; type: in vivo; settings: 0 h, read-out: Percent Inhibition, CS; for inhibition at 375 g/ha: 0.375 Kg/Ha; for inhibition at 750 g/ha: 0.75 Kg/Ha; for inhibition at 1500 g/ha: 1.5 Kg/Ha; for inhibition at 3000 g/ha: 3.0 Kg/Ha
Method in brief: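 Field test in transplanted rice, herbicide applied as granules (2.5% or 5.0% w/w active) at transplanting (0 DAT). Rates from 3.0 kg/ha down to 0.375 kg/ha. Weed control observed weekly from 2 to 6 weeks after transplant, reported at 2, 4 and 6 WAT.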

[2] = tested on: Sagittaria trifolia; test: Greenhouse transplant rice test, ST; type: in vivo; settings: Sagittaria trifolia, about 3 WAT, read-out: Percent Inhibition, ST
From the text: (§1) The test procedure used in this greenhouse test is as follows: Ray silt loam top soil containing about 0.05% by weight of krillium and sifted through a […] screen is fumigated about 5-10 days prior to use. Pots are then filled with said Ray silt loam soil to a level to allow for a 1 in. (2.54 cm) flooding depth. Rice plants (Bluebelle) of 2 to 3 weeks age are transplanted to the pots and bulbs or seeds of the test weeds also planted in the pots. The pots are then flooded and the test chemical applied to the surface of the flood water. The flood water is reduced to allow for germination of the Echinochloa crus-galli (barnyardgrass) seed and subsequently reflooded and maintained in that condition. Observations of percent inhibition using a scale of 0-100% are made about 3 weeks after transplant (WAT).
(§2) The test data in Table III for all compounds was obtained under identical test conditions. The weeds used in the tests herein have the following abbreviations in the tables: Echinochloa crus-galli (EC), Monochloria vaginalis (MV), Cyperus Serotinus (CS), Eleocharis Kuroguwai (EK) and Sagittaria trifolia (ST).

[3] = tested on: Rice; test: Greenhouse transplant rice test, rice injury; type: in vivo, Rice (Bluebelle); settings: Oryza sativa, about 3 WAT, read-out: Percent Inhibition, Rice
From the text: as §1, §2

[4] = tested on: Eleocharis kuroguwai; test: Field transplant rice test, applied 9 DAT, EK; type: in vivo; settings: for inhibition at 375 g/ha / inhibition at 750 g/ha / inhibition at 1500 g/ha / inhibition at 3000 g/ha: Eleocharis kuroguwai, 216 h, read-out: Percent Inhibition, EK; for inhibition at 375 g/ha: 0.375 Kg/Ha; for inhibition at 750 g/ha: 0.75 Kg/Ha; for inhibition at 1500 g/ha: 1.5 Kg/Ha; for inhibition at 3000 g/ha: 3.0 Kg/Ha
Method in brief: (§3)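 Field test in transplanted rice, herbicides applied as granules (2.5% or 5.0% w/w active) 9 days after transplant at 3.0 down to 0.375 kg/ha. Weed control observed weekly from 3 to 7 weeks after transplant.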

[5] = tested on: Echinochloa crus-galli; test: Field transplant rice test, applied 9 DAT, EC; type: in vivo; settings: for inhibition at 375 g/ha / inhibition at 750 g/ha / inhibition at 1500 g/ha / inhibition at 3000 g/ha: Echinochloa crus-galli, 216 h, read-out: Percent Inhibition, EC; for inhibition at 375 g/ha: 0.375 Kg/Ha; for inhibition at 750 g/ha: 0.75 Kg/Ha; for inhibition at 1500 g/ha: 1.5 Kg/Ha; for inhibition at 3000 g/ha: 3.0 Kg/Ha
Method in brief: as §3

[6] = tested on: Eleocharis kuroguwai; test: Greenhouse transplant rice test, EK; type: in vivo; settings: about 3 WAT, read-out: Percent Inhibition, EK
From the text: as §1, §2

[7] = tested on: Monochoria vaginalis; test: Field transplant rice test, applied 9 DAT, MV; type: in vivo; settings: for inhibition at 375 g/ha / inhibition at 750 g/ha / inhibition at 1500 g/ha / inhibition at 3000 g/ha: Pontederia vaginalis, 216 h, read-out: Percent Inhibition, MV; for inhibition at 375 g/ha: 0.375 Kg/Ha; for inhibition at 750 g/ha: 0.75 Kg/Ha; for inhibition at 1500 g/ha: 1.5 Kg/Ha; for inhibition at 3000 g/ha: 3.0 Kg/Ha
Method in brief: as §3

In the case of `CCCCOCN(C(=O)CCl)c1c(CC)cccc1CC` [Compound A, 2',6'-diethyl-N-(n-butoxymethyl)-2-chloroacetanilide], the inhibition at 375 g/ha ([1]; 2 WAT) is reported as 67%, the inhibition at 375 g/ha ([1]; 4 WAT) is reported as 67% and the inhibition at 375 g/ha ([1]; 6 WAT) is reported as 63%. The inhibition at 750 g/ha ([1]; 2 WAT) was 95%, the inhibition at 750 g/ha ([1]; 4 WAT) was 93% and the inhibition at 750 g/ha ([1]; 6 WAT) was 93%. The inhibition at 1500 g/ha ([1]; 2 WAT) was 90%, the inhibition at 1500 g/ha ([1]; 4 WAT) was 82% and the inhibition at 1500 g/ha ([1]; 6 WAT) was 77%. For the same compound, the inhibition at 3000 g/ha ([1]; 2 WAT) was 73%, the inhibition at 3000 g/ha ([1]; 4 WAT) was 68% and the inhibition at 3000 g/ha ([1]; 6 WAT) was 50%. For the same compound, the inhibition at 280 g/ha ([2]; 0.28 Kg/Ha) was 15%, the inhibition at 560 g/ha ([2]; 0.56 Kg/Ha) was 45% and the inhibition at 1120 g/ha ([2]; 1.12 Kg/Ha) was 30%. For the same compound, the inhibition at 2240 g/ha ([2]; 2.24 Kg/Ha) was 15%, the inhibition at 280 g/ha ([3]; 0.28 Kg/Ha) was 5% and the inhibition at 560 g/ha ([3]; 0.56 Kg/Ha) was 10%. For the same compound, the inhibition at 1120 g/ha ([3]; 1.12 Kg/Ha) was 10%, the inhibition at 2240 g/ha ([3]; 2.24 Kg/Ha) was 15% and the “selectivity factor (GR15/GR85), EK in transplant rice” value ([4]; 3 WAT) was “non-selective”. The inhibition at 375 g/ha ([4]; 3 WAT) was 40%, the inhibition at 375 g/ha ([4]; 5 WAT) was 22% and the inhibition at 375 g/ha ([4]; 7 WAT) was 3%. The inhibition at 750 g/ha ([4]; 3 WAT) was 37%, the inhibition at 750 g/ha ([4]; 5 WAT) was 12% and the inhibition at 750 g/ha ([4]; 7 WAT) was 3%. It also gave an inhibition at 1500 g/ha ([4]; 3 WAT) of 55%, an inhibition at 1500 g/ha ([4]; 5 WAT) of 25% and an inhibition at 1500 g/ha ([4]; 7 WAT) of 0%. The inhibition at 3000 g/ha ([4]; 3 WAT) was 68%, the inhibition at 3000 g/ha ([4]; 5 WAT) was 40% and the inhibition at 3000 g/ha ([4]; 7 WAT) was 0%. For the same compound, the inhibition at 375 g/ha ([5]; 3 WAT) was 23%, the inhibition at 375 g/ha ([5]; 5 WAT) was 20% and the inhibition at 375 g/ha ([5]; 7 WAT) was 17%. It also gave an inhibition at 750 g/ha ([5]; 3 WAT) of 80%, an inhibition at 750 g/ha ([5]; 5 WAT) of 75% and an inhibition at 750 g/ha ([5]; 7 WAT) of 70%. It also gave an inhibition at 1500 g/ha ([5]; 3 WAT) of 88%, an inhibition at 1500 g/ha ([5]; 5 WAT) of 90% and an inhibition at 1500 g/ha ([5]; 7 WAT) of 85%. The inhibition at 3000 g/ha ([5]; 3 WAT) was 93%, the inhibition at 3000 g/ha ([5]; 5 WAT) was 93% and the inhibition at 3000 g/ha ([5]; 7 WAT) was 90%. For the same compound, the “selectivity factor (GR15/GR85), EC in transplant rice” value ([5]; between 3 WAT and 7 WAT) was 2, the inhibition at 280 g/ha ([6]; 0.28 Kg/Ha) was 50% and the inhibition at 560 g/ha ([6]; 0.56 Kg/Ha) was 100%. For the same compound, the inhibition at 1120 g/ha ([6]; 1.12 Kg/Ha) was 100%, the inhibition at 2240 g/ha ([6]; 2.24 Kg/Ha) was 100% and the inhibition at 375 g/ha ([7]; 3 WAT) was 90%. The inhibition at 375 g/ha ([7]; 5 WAT) was 98%, the inhibition at 375 g/ha ([7]; 7 WAT) was 80% and the inhibition at 750 g/ha ([7]; 3 WAT) was 92%. It also gave an inhibition at 750 g/ha ([7]; 5 WAT) of 87%, an inhibition at 750 g/ha ([7]; 7 WAT) of 60% and an inhibition at 1500 g/ha ([7]; 3 WAT) of 100%. The inhibition at 1500 g/ha ([7]; 5 WAT) was 100%, the inhibition at 1500 g/ha ([7]; 7 WAT) was 100% and the inhibition at 3000 g/ha ([7]; 3 WAT) was 100%. For the same compound, the inhibition at 3000 g/ha ([7]; 5 WAT) was 100%, the inhibition at 3000 g/ha ([7]; 7 WAT) was 100% and the “selectivity factor (GR15/GR85), MV in transplant rice” value ([7]; between 3 WAT and 7 WAT) was 8.
